Results reported in patent publication US9012611B2, “Use of 3,8,12,14, 17,20-oxo-substituted pregnene glycosides in the preparation of healthcare products, food additives and pharmaceuticals for the inhibition of appetite” (Institute of Materia Medica, Chinese Academy of Sciences, priority 2010, dated 2015).

Key:
female Wistar rat = assay: Animal test in vivo: average food consumption (appetite inhibition); details: for Average food consumptions: positive control 15 mg/kg; for average food consumptions compared with the blank control group (in words): during the administration of the drugs, pure glycosides 50 mg/kg
Protocol: (§1) 6-7 weeks-old female Wistar rat (purchased from Shanghai Laboratory Animal Center of Chinese Academy of Sciences)(weight: 110-150 g) was raised alone in suspended metal cage. After the experimental rat was obtained, it was checked to make sure whether they were abnormal or had obvious disease signs. The rat can freely obtain the drinking-water and feed for rodent (RM1(E)AQC). The feeding cage was controlled to receive 12 h illumination (from 07:00 to 19:00) and to be in a dark environment for 12 h, and the room temperature and relative humidity were controlled to be 21±3° C. and 55±15% respectively and not to deviate the upper and lower limit. The rats were randomly divided into groups depending on the body weight according to random number table to make the average weight in each group are approximately equal. Before the test, the rats were pre-trained suitably for one week (from −7th day to −1st day) during which the consumptions of feed and drinking water were recorded.
(§2) Each group of drug to be tested, positive control group, and blank control group consisted of 5 rats, respectively. The tested drug and positive control drug were mixed with wheaten starch before the administration and formulated to suspension with required doses according to 10 mL/kg of administration volume. The positive control drug was sibutramine hydrochloride and the administration dosage was 15 mg/kg body weight. In the blank control group, only equal amount of starch was used to formulate suspension for administration by […] in a same volume. The administration time is the 1st day, 2nd day and 3rd day. The body weight of the rat, the consumption of the feed (the weight of the feeding hopper) and consumption of the drinking water (bottle weight) were recorded from the −7th day to the 7th day.

[1] = Animal test in vivo: average body weight; design: species or system rat; details: for Average body weight: positive control 15 mg/kg; for body weight compared with the blank control group (in words): during the administration of the drugs, pure glycosides 50 mg/kg
Protocol: as §1, §2

## CO[C@H]1C[C@H](O[C@H]2[C@@H](OC)C[C@H](O[C@H]3CC[C@@]4(C)C(=CC[C@]5(O)[C@@H]4C[C@@H](OC(=O)/C=C(\C)C(C)C)[C@@]4(C)[C@]5(O)CC[C@@]4(O)C(C)=O)C3)O[C@@H]2C)O[C@@H](C)[C@H]1O[C@H]1C[C@H](OC)[C@H](O[C@H]2C[C@@H](OC)[C@@H](O[C@@H]3O[C@H](CO)[C@@H](O)[C@H](O)[C@H]3O)[C@H](C)O2)[C@@H](C)O1 [Wilfoside C1G, wilfoside C1G]
Female Wistar rat; 1st day (administration day), Table 1, crude extract 300 mg/kg, others 50 mg/kg
  Average food consumptions: 14.4 g
Female Wistar rat; 2nd day (administration day), Table 1, crude extract 300 mg/kg, others 50 mg/kg
  Average food consumptions: 12.4 g
Female Wistar rat; 3rd day (administration day), Table 1, crude extract 300 mg/kg, others 50 mg/kg
  Average food consumptions: 14.4 g
Female Wistar rat; 4th day (after administration on days 1-3), Table 1, crude extract 300 mg/kg, others 50 mg/kg
  Average food consumptions: 14.8 g
Female Wistar rat; 5th day (after administration on days 1-3), Table 1, crude extract 300 mg/kg, others 50 mg/kg
  Average food consumptions: 17.6 g
Female Wistar rat; 6th day (after administration on days 1-3), Table 1, crude extract 300 mg/kg, others 50 mg/kg
  Average food consumptions: 12.4 g
Female Wistar rat; 7th day (after administration on days 1-3), Table 1, crude extract 300 mg/kg, others 50 mg/kg
  Average food consumptions: 15.2 g
Female Wistar rat; crude extract 300 mg/kg
  average food consumptions compared with the blank control group (in words): no great differences
Female Wistar rat; −1st day (before administration), Table 1, crude extract 300 mg/kg, others 50 mg/kg
  Average food consumptions: 14 g
Female Wistar rat; −2nd day (before administration), Table 1, crude extract 300 mg/kg, others 50 mg/kg
  Average food consumptions: 13.6 g
Female Wistar rat; −3rd day (before administration), Table 1, crude extract 300 mg/kg, others 50 mg/kg
  Average food consumptions: 14.8 g
Female Wistar rat; −4th day (before administration), Table 1, crude extract 300 mg/kg, others 50 mg/kg
  Average food consumptions: 15.2 g
Female Wistar rat; −5th day (before administration), Table 1, crude extract 300 mg/kg, others 50 mg/kg
  Average food consumptions: 13.6 g
Female Wistar rat; −6th day (before administration), Table 1, crude extract 300 mg/kg, others 50 mg/kg
  Average food consumptions: 13.6 g
Female Wistar rat; −7th day (before administration), Table 1, crude extract 300 mg/kg, others 50 mg/kg
  Average food consumptions: 13.6 g
[1]; 1st day (administration day), Table 3, crude extract 300 mg/kg, others 50 mg/kg
  Average body weight: 163.6 g
[1]; 2nd day (administration day), Table 3, crude extract 300 mg/kg, others 50 mg/kg
  Average body weight: 163.2 g
[1]; 3rd day (administration day), Table 3, crude extract 300 mg/kg, others 50 mg/kg
  Average body weight: 165.2 g
[1]; 4th day (after administration on days 1-3), Table 3, crude extract 300 mg/kg, others 50 mg/kg
  Average body weight: 166.4 g
[1]; 5th day (after administration on days 1-3), Table 3, crude extract 300 mg/kg, others 50 mg/kg
  Average body weight: 170.4 g
[1]; 6th day (after administration on days 1-3), Table 3, crude extract 300 mg/kg, others 50 mg/kg
  Average body weight: 169.6 g
[1]; 7th day (after administration on days 1-3), Table 3, crude extract 300 mg/kg, others 50 mg/kg
  Average body weight: 174.4 g
[1]; crude extract 300 mg/kg
  body weight compared with the blank control group (in words): no great differences
[1]; −1st day (before administration), Table 3, crude extract 300 mg/kg, others 50 mg/kg
  Average body weight: 162.8 g
[1]; −2nd day (before administration), Table 3, crude extract 300 mg/kg, others 50 mg/kg
  Average body weight: 157.6 g
[1]; −3rd day (before administration), Table 3, crude extract 300 mg/kg, others 50 mg/kg
  Average body weight: 155.6 g
[1]; −4th day (before administration), Table 3, crude extract 300 mg/kg, others 50 mg/kg
  Average body weight: 153.2 g
[1]; −5th day (before administration), Table 3, crude extract 300 mg/kg, others 50 mg/kg
  Average body weight: 151.2 g
[1]; −6th day (before administration), Table 3, crude extract 300 mg/kg, others 50 mg/kg
  Average body weight: 147.6 g
[1]; −7th day (before administration), Table 3, crude extract 300 mg/kg, others 50 mg/kg
  Average body weight: 145.6 g

## CO[C@H]1C[C@H](O[C@H]2[C@@H](OC)C[C@H](O[C@H]3CC[C@@]4(C)C(=CC[C@]5(O)[C@@H]4C[C@@H](OC(=O)/C=C(\C)C(C)C)[C@@]4(C)[C@]5(O)CC[C@@]4(O)C(C)=O)C3)O[C@@H]2C)O[C@@H](C)[C@H]1O[C@H]1C[C@H](OC)[C@H](O[C@H]2C[C@@H](OC)[C@@H](O)[C@H](C)O2)[C@@H](C)O1 [Wilfoside C1N, wilfoside C1N]
Female Wistar rat; 1st day (administration day), Table 4, wilfosides 50 mg/kg
  Average food consumptions: 11.6 g
Female Wistar rat; 2nd day (administration day), Table 4, wilfosides 50 mg/kg
  Average food consumptions: 8.8 g
Female Wistar rat; 3rd day (administration day), Table 4, wilfosides 50 mg/kg
  Average food consumptions: 3.6 g
Female Wistar rat; 4th day (after administration on days 1-3), Table 4, wilfosides 50 mg/kg
  Average food consumptions: 11.6 g
Female Wistar rat; 5th day (after administration on days 1-3), Table 4, wilfosides 50 mg/kg
  Average food consumptions: 15.6 g
Female Wistar rat; 6th day (after administration on days 1-3), Table 4, wilfosides 50 mg/kg
  Average food consumptions: 13.6 g
Female Wistar rat; 7th day (after administration on days 1-3), Table 4, wilfosides 50 mg/kg
  Average food consumptions: 15.6 g
Female Wistar rat; crude extract 300 mg/kg
  average food consumptions compared with the blank control group (in words): greatly different from those in the blank group
Female Wistar rat; −1st day (before administration), Table 4, wilfosides 50 mg/kg
  Average food consumptions: 13.6 g
Female Wistar rat; −2nd day (before administration), Table 4, wilfosides 50 mg/kg
  Average food consumptions: 14 g
Female Wistar rat; −3rd day (before administration), Table 4, wilfosides 50 mg/kg
  Average food consumptions: 13.2 g
Female Wistar rat; −4th day (before administration), Table 4, wilfosides 50 mg/kg
  Average food consumptions: 13.2 g
Female Wistar rat; −5th day (before administration), Table 4, wilfosides 50 mg/kg
  Average food consumptions: 14.8 g
Female Wistar rat; −6th day (before administration), Table 4, wilfosides 50 mg/kg
  Average food consumptions: 10.8 g
Female Wistar rat; −7th day (before administration), Table 4, wilfosides 50 mg/kg
  Average food consumptions: 8.4 g
[1]; 1st day (administration day), Table 6, wilfosides 50 mg/kg
  Average body weight: 152 g
[1]; 2nd day (administration day), Table 6, wilfosides 50 mg/kg
  Average body weight: 146.8 g
[1]; 3rd day (administration day), Table 6, wilfosides 50 mg/kg
  Average body weight: 141.6 g
[1]; 4th day (after administration on days 1-3), Table 6, wilfosides 50 mg/kg
  Average body weight: 149.2 g
[1]; 5th day (after administration on days 1-3), Table 6, wilfosides 50 mg/kg
  Average body weight: 154 g
[1]; 6th day (after administration on days 1-3), Table 6, wilfosides 50 mg/kg
  Average body weight: 155.2 g
[1]; 7th day (after administration on days 1-3), Table 6, wilfosides 50 mg/kg
  Average body weight: 157.2 g
[1]; crude extract 300 mg/kg
  body weight compared with the blank control group (in words): no great differences
[1]; −1st day (before administration), Table 6, wilfosides 50 mg/kg
  Average body weight: 154 g
[1]; −2nd day (before administration), Table 6, wilfosides 50 mg/kg
  Average body weight: 151.4 g
[1]; −3rd day (before administration), Table 6, wilfosides 50 mg/kg
  Average body weight: 148.4 g
[1]; −4th day (before administration), Table 6, wilfosides 50 mg/kg
  Average body weight: 146.8 g
[1]; −5th day (before administration), Table 6, wilfosides 50 mg/kg
  Average body weight: 144.4 g
[1]; −6th day (before administration), Table 6, wilfosides 50 mg/kg
  Average body weight: 142 g
[1]; −7th day (before administration), Table 6, wilfosides 50 mg/kg
  Average body weight: 140.6 g
